Reference: ChEMBL document CHEMBL1201862, “PubChem BioAssay data set” (2004)
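Method: 48-hour compound exposure of cells in 96-well plates, five concentrations, linear interpolation of endpoints. GI50 = concentration required for 50% inhibition of growth.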 Active and inactive are the calls of the source. Rule as the data show it: active = GI50 up to about 1.1 µM and inactive = higher.

How the values were obtained:
Experiment in all cases: NCI-60 cell line screen, 48 h
M14 = test system: M14
K562 = test system: K562
NCI-H522 = test system: NCI-H522
MOLT-4 = test system: MOLT-4
786-0 = test system: 786-0
SW-620 = test system: SW-620
TK-10 = test system: TK-10
RXF 393 = test system: RXF 393
SK-OV-3 = test system: SK-OV-3
COLO 205 = test system: COLO 205
Hs-578T = test system: Hs-578T
LOX IMVI = test system: LOX IMVI
HCT-116 = test system: HCT-116
A549 = test system: A549
UACC-62 = test system: UACC-62
SK-MEL-2 = test system: SK-MEL-2
SF-268 = test system: SF-268
U-251 = test system: U-251
NCI/ADR-RES = test system: NCI/ADR-RES
RPMI-8226 = test system: RPMI-8226

| SMILES | GI50 (M14) | GI50 (K562) | GI50 (NCI-H522) | GI50 (MOLT-4) | GI50 (786-0) | GI50 (SW-620) | GI50 (TK-10) | GI50 (RXF 393) | GI50 (SK-OV-3) | GI50 (COLO 205) | GI50 (Hs-578T) | GI50 (LOX IMVI) | GI50 (HCT-116) | GI50 (A549) | GI50 (UACC-62) | GI50 (SK-MEL-2) | GI50 (SF-268) | GI50 (U-251) | GI50 (NCI/ADR-RES) | GI50 (RPMI-8226) |
| --- | --- | --- | --- | --- | --- | --- | --- | --- | --- | --- | --- | --- | --- | --- | --- | --- | --- | --- | --- | --- |
| C/C(=N/NC(=S)N1CCCC1)c1cccc(/C(C)=N\NC(=S)N2CCCC2)n1 | 1.25 µM (inactive) | 0.0468 µM (active) | 1.8 µM (inactive) | 0.0412 µM (active) | 1.37 µM (inactive) | 0.267 µM (active) | 1.39 µM (inactive) | 1.32 µM (inactive) | 1.46 µM (inactive) | 0.785 µM (active) | 3.49 µM (inactive) | 0.0847 µM (active) | 1.14 µM (inactive) | 1.44 µM (inactive) | 2.25 µM (inactive) | 1.7 µM (inactive) | 1.68 µM (inactive) | 1.5 µM (inactive) | 1.96 µM (inactive) | 2.06 µM (inactive) |
| CN1COCc2cc3cc4c(cc3nc21)OCCO4 | > 100 µM (inactive) | > 100 µM (inactive) | > 100 µM (inactive) | 11.5 µM (inactive) | > 100 µM (inactive) | > 100 µM (inactive) | > 100 µM (inactive) | > 100 µM (inactive) | > 100 µM (inactive) | > 100 µM (inactive) | 0.0452 µM (active) | > 100 µM (inactive) | 93.3 µM (inactive) | > 100 µM (inactive) | > 100 µM (inactive) | > 100 µM (inactive) | > 100 µM (inactive) | > 100 µM (inactive) | > 100 µM (inactive) | 4.72 µM (inactive) |
| CCOC(=O)C1=NNC(C(=O)c2ccccc2)C1c1ccccc1 (stereo not given) | 1.9 µM (inactive) | 1.47 µM (inactive) | 1.15 µM (inactive) | 3.54 µM (inactive) | 2.11 µM (inactive) | 1.75 µM (inactive) | 2.25 µM (inactive) | 1.7 µM (inactive) | 18.8 µM (inactive) | 2.05 µM (inactive) | 4.12 µM (inactive) | 2.32 µM (inactive) | 2.52 µM (inactive) | 19.1 µM (inactive) | 3.18 µM (inactive) | 16.2 µM (inactive) | 5 µM (inactive) | 3.39 µM (inactive) | 4.35 µM (inactive) | 3.85 µM (inactive) |
| CC1CC[C@@]2(OC1)OC1C[C@H]3[C@@H]4CC[C@H]5CC(OC6OC(CO)C(OC7OC(CO)C(O)C(O)C7O)C(O)C6O)CCC5(C)[C@H]4CCC3(C)C1[C@@H]2C (stereo not given in full) | 8.89 µM (inactive) | 12.5 µM (inactive) | 6.19 µM (inactive) | 9.14 µM (inactive) | 8.26 µM (inactive) | 8.81 µM (inactive) | 9.64 µM (inactive) | 10.7 µM (inactive) | 10.1 µM (inactive) | 6.89 µM (inactive) | 8.57 µM (inactive) | 4.58 µM (inactive) | 7.53 µM (inactive) | 9.35 µM (inactive) | 10.1 µM (inactive) | 7.85 µM (inactive) | 9.57 µM (inactive) | 8.99 µM (inactive) | 9.64 µM (inactive) | 13.7 µM (inactive) |
| Cc1cc2c3c(ccc4[nH]cc(c43)CN2c2ccc(NS(C)(=O)=O)cc2)n1 | > 100 µM (inactive) | 90.6 µM (inactive) | 5.75 µM (inactive) | 3.02 µM (inactive) | 11.4 µM (inactive) | > 100 µM (inactive) | 26.2 µM (inactive) | 28.9 µM (inactive) | 32.3 µM (inactive) | > 100 µM (inactive) | > 100 µM (inactive) | > 100 µM (inactive) | 11.4 µM (inactive) | 25.6 µM (inactive) | > 100 µM (inactive) | 37.7 µM (inactive) | 3.28 µM (inactive) | 22.5 µM (inactive) | > 100 µM (inactive) | 13.5 µM (inactive) |
| O=C1c2ccccc2C2CNC1(O)c1ccccc12 (stereo not given) | > 100 µM (inactive) | > 100 µM (inactive) | > 100 µM (inactive) | > 100 µM (inactive) | > 100 µM (inactive) | > 100 µM (inactive) | > 100 µM (inactive) | > 100 µM (inactive) | > 100 µM (inactive) | > 100 µM (inactive) | > 100 µM (inactive) | > 100 µM (inactive) | > 100 µM (inactive) | > 100 µM (inactive) | > 100 µM (inactive) | > 100 µM (inactive) | > 100 µM (inactive) | > 100 µM (inactive) | > 100 µM (inactive) | > 100 µM (inactive) |
| Cn1cc(S(=O)(=O)NC(=O)Nc2ccc(Cl)cc2)c2ccccc21 | > 100 µM (inactive) | > 100 µM (inactive) | 24.5 µM (inactive) | > 100 µM (inactive) | > 100 µM (inactive) | 50.6 µM (inactive) | 21.4 µM (inactive) | > 100 µM (inactive) | 55.5 µM (inactive) | 30.3 µM (inactive) | > 100 µM (inactive) | 93.1 µM (inactive) | 32.4 µM (inactive) | 63.4 µM (inactive) | 12.4 µM (inactive) | 54.7 µM (inactive) | > 100 µM (inactive) | 41.9 µM (inactive) | 38.6 µM (inactive) | > 100 µM (inactive) |
